pIC50: −log10 of the molar value. ≈ marks a conversion by molar mass, not a printed value. Where “and” joins values, the source holds several entries; their conditions need not be identical. Equal entries are not always repeated.
What was measured:
F. tularensis Schu S4 [1] = format: cell-based, Francisella tularensis subspecies tularensis Schu S4
F. tularensis Schu S4 [2] = assay: microbe, parasite or virus in culture; format: cell-based, Francisella tularensis subspecies tularensis Schu S4; conditions: Francisella tularensis, SCHUS4
[3] = target: NH3-dependent NAD^+ synthetase (nadE); conditions: read-out: enzymatic IC50; cited from earlier work
B. anthracis Sterne = conditions: cited from earlier work

Compound	Growth Inhibition (F. tularensis Schu S4 [1])	also measured
NC(=O)COc1cccnc1C(=O)O [Compound 32, NC( = O)COc1c(nccc1)C( = O)O]	No	–
Nc1nc(O)c2nc(CNc3ccc(C(=O)O)cc3)cnc2n1 [Compound 19, N(Cc2nc3c(nc(nc3O)N)nc2)c1ccc(cc1)C( = O)O]	No	–
CCOC(=O)c1cc2c(nc1C(=O)OCC)CCCC2=O [Compound 31, n1c2c(cc(c1C( = O)OCC)C( = O)OCC)C( = O)CCC2]	No	–
O.O.O=C1NC(c2ccccc2)(c2ccccc2)C(=O)N1COP(=O)(O)O [Compound 2, [P]( = O)([O-])([O-])OCN1C( = O)NC(C1 = O)(c3ccccc3)c2ccccc2.O.O]	No	–
Nc1nc(NC2CC2)c2ncn([C@H]3C=C[C@@H](CO)C3)c2n1 [Compound 1, [n]2(c3nc(nc(c3nc2)NC4CC4)N)[C@@H]1C[C@@H](C = C1)CO]	No	–
Cc1ccc(-c2cc(C(F)(F)F)nn2-c2ccc(S(N)(=O)=O)cc2)cc1 [Compound 4, FC(F)(F)c1n[n](c(c1)c3ccc(cc3)C)c2ccc(cc2)[S]( = O)( = O)N]	No	–
Cc1cc(Nc2ccccc2)n(C(=O)c2ccc(Cl)cc2)n1 [Compound 14, Clc1ccc(cc1)C( = O)[n]2nc(cc2Nc3ccccc3)C]	showed activity against the bacteria and Yes	MIC (F. tularensis Schu S4 [2]): 4 µg/mL (≈ 12.8 µM); Reduction of growth versus no-compound control (F. tularensis Schu S4 [1]): completely abolished bacterial growth
OCC1OC(Oc2ccc(Cl)cc2Cl)C(O)C(O)C1O (centres unmarked) [Compound 24, Clc1c(ccc(c1)Cl)OC2OC(C(C(C2O)O)O)CO]	showed activity against the bacteria and Yes	Toxicity (RAW 264.7 cells): non-toxic; MIC (F. tularensis Schu S4 [2]): > 125 µg/mL and ~400 µM
NC(=O)c1ncn([C@@H]2O[C@H](CO)[C@@H](O)[C@H]2O)c1O [Compound 28, [n]2(cnc(c2O)C( = O)N)[C@@H]1O[C@@H]([C@H]([C@H]1O)O)CO]	No	–
CC1=CC(O)(c2ccccc2)N(C(=O)c2ccncc2)N1 (centres unmarked) [Compound 39, N2(NC( = CC2(O)c3ccccc3)C)C( = O)c1ccncc1]	No	–
N2(NC( = CC2(O)c3cc(ccc3)OC)CC)C( = O)c1ccccc1 [Compound 38]	No	–
Nc1ccccc1CN1C(=O)c2ccccc2C1=O [Compound 15, N2(C( = O)c3c(cccc3)C2 = O)Cc1c(cccc1)N]	No	–
Cc1nn2c(=O)c3ccccc3[nH]c2c1C=O [Compound 13, [n]21nc(c(c2Nc3c(cccc3)C1 = O)C = O)C]	showed activity against the bacteria and Yes	Toxicity (RAW 264.7 cells): non-toxic; MIC (F. tularensis Schu S4 [2]): > 125 µg/mL and ~400 µM
N#Cc1ccc(Oc2ccccc2O)c(F)c1 [Compound 16, Fc1c(ccc(c1)C#N)Oc2c(cccc2)O]	No	–
NC(=O)c1ccc(Oc2ccccc2O)c(F)c1 [Compound 17, Fc1c(ccc(c1)C( = O)N)Oc2c(cccc2)O]	No	–
NC(Cc1ccc(Br)s1)C(=O)O (centres unmarked) [Compound 7, [s]1c(ccc1CC(N)C( = O)O)Br]	No	–
NC(=O)c1nc[nH]c1C(N)=O [Compound 21, [nH]1cnc(c1C( = O)N)C( = O)N]	No	–
CC(C)[C@H](N)C(=O)OCCOCn1cnc2c(O)nc(N)nc21 [Compound 34, [n]1(c2nc(nc(c2nc1)O)N)COCCOC( = O)[C@@H](N)C(C)C]	No	–
Cc1cc(CC(N)C(=O)O)on1 (centres unmarked) [Compound 6, NC(Cc1[o]nc(c1)C)C( = O)O]	No	–
O=[N+]([O-])c1ccc(O)c(/C=N/c2cccc(O)c2)c1 [Compound 35, [N+]( = O)([O-])c1cc(c(cc1)O)\C = N\c2cc(ccc2)O]	showed activity against the bacteria and Yes	MIC (F. tularensis Schu S4 [2]): 32 µg/mL (≈ 124 µM); Reduction of growth versus no-compound control (F. tularensis Schu S4 [1]): completely abolished bacterial growth; pIC50 [3]: 5.60; MIC (B. anthracis Sterne): > 387 µM

Compound	Growth Inhibition (F. tularensis Schu S4 [1])	also measured
O[C@@H]1[C@@H](O)[C@H](Nc2ccc(Br)cc2)OC[C@H]1O [Compound 27, Brc1ccc(cc1)N[C@@H]2OC[C@H]([C@@H]([C@H]2O)O)O]	No	–
NC(=O)c1ncn([C@@H]2O[C@H](CO)C(O)C2O)c1N (some centres unmarked) [Compound 30, [n]2(cnc(c2N)C( = O)N)[C@@H]1O[C@@H](C(C1O)O)CO]	No	–
COc1ccc([C@@H]2CC(=O)c3c(O)cc(O)cc3O2)cc1O [Compound 33, O1[C@@H](CC( = O)c3c1cc(cc3O)O)c2cc(c(cc2)OC)O]	No	–
O=Cc1cnn2c(=O)c3ccccc3[nH]c12 [Compound 12, [n]21ncc(c2Nc3c(cccc3)C1 = O)C = O]	showed activity against the bacteria and Yes	MIC (F. tularensis Schu S4 [2]): 63 µg/mL (≈ 296 µM)
Cc1ccc(OC2OC(CO)C(O)C(O)C2O)cc1C (centres unmarked) [Compound 23, O1C(C(C(C(C1CO)O)O)O)Oc2cc(c(cc2)C)C]	No	–
Nc1nc(N)c2nc(CNc3ccc(C(=O)O)cc3)cnc2n1 [Compound 20, N(Cc2nc3c(nc(nc3N)N)nc2)c1ccc(cc1)C( = O)[O-]]	No	–
CCOc1ccc(NC2OC(CO)C(O)C(O)C2O)cc1 (centres unmarked) [Compound 25, N(C2OC(C(C(C2O)O)O)CO)c1ccc(cc1)OCC]	No	–
Cc1cc2ccccc2n1CC(=O)NCc1cccnc1N(C)C [Compound 18, [n]2(c3c(cc2C)cccc3)CC( = O)NCc1c(nccc1)N(C)C]	No	–
O=C1/C(=C\c2ccc(-n3ccnc3)cc2)Oc2cc(O)ccc21 [Compound 5, [n]4(cncc4)c1ccc(cc1)\C = C2\Oc3c(ccc(c3)O)C\2 = O]	showed activity against the bacteria and Yes	Toxicity (RAW 264.7 cells): non-toxic; MIC (F. tularensis Schu S4 [2]): > 125 µg/mL
OCC1OC(Nc2ccccc2)C(O)C(O)C1O (centres unmarked) [Compound 26, N(C2OC(C(C(C2O)O)O)CO)c1ccccc1]	No	–
O=C(Cn1cc(/C=C/c2nc(O)nc(O)c2[N+](=O)[O-])c2ccccc21)Nc1ccc(F)cc1 [Compound 36, Fc1ccc(cc1)NC( = O)C[n]2c3c(c(c2)\C = C\c4nc(nc(c4[N+]( = O)[O-])O)O)cccc3]	No	–
COc1cc(C=O)ccc1OCc1ccccc1COc1ccc(/C=C2/SC(=S)NC2=O)cc1OC [Compound 11, S1\C( = C\c2cc(c(cc2)OCc3c(cccc3)COc4c(cc(cc4)C = O)OC)OC)\C( = O)NC1 = S]	No	–
CC(c1cc2ccccc2s1)N(O)C(N)=O (centres unmarked) [Compound 3, [s]1c2c(cc1C(N(O)C( = O)N)C)cccc2]	No	–
NC(=O)c1ccc(-c2ccc(/C=C3/C(=O)NN(c4ccc(F)cc4)C3=O)o2)cc1 [Compound 10, Fc1ccc(cc1)N2NC( = O)\C( = C\c3[o]c(cc3)c4ccc(cc4)C( = O)N)\C2 = O]	No	–
COc1ccc(C2(O)C=C(C)NN2C(=O)c2ccccc2)cc1 (centres unmarked) [Compound 40, N2(NC( = CC2(O)c3ccc(cc3)OC)C)C( = O)c1ccccc1]	No	–
O=C1NN(c2cccc(Br)c2)C(=O)/C1=C\c1ccc(-c2ccccc2C(=O)O)o1 [Compound 9, Brc1cc(ccc1)N2NC( = O)\C( = C\c3[o]c(cc3)c4c(cccc4)C( = O)O)\C2 = O]	No	–
Cc1ccc(NC2OCC(O)C(O)C2O)cc1 (centres unmarked) [Compound 29, N(C2OCC(C(C2O)O)O)c1ccc(cc1)C]	No	–
C=C(O[C@@H]1C=C(C(=O)O)C=C[C@H]1O)C(=O)O [Compound 8, O([C@H]1[C@@H](C = CC( = C1)C( = O)O)O)C( = C)C( = O)O]	No	–
CC1(C)S[C@@H]2[C@H](NC(=O)COc3ccccc3)C(=O)N2[C@H]1C(=O)O [Compound 37, S1[C@H]2N([C@H](C1(C)C)C( = O)[O-])C( = O)[C@H]2NC( = O)COc3ccccc3]	No	–
O=[N+]([O-])c1ccc(NC2OC(CO)C(O)C(O)C2O)cc1 (centres unmarked) [Compound 22, [N+]( = O)([O-])c1ccc(cc1)NC2OC(C(C(C2O)O)O)CO]	No	–

— article PMC3660459 (PLoS ONE, 2013)
